These are literature values, as cited in PMC12424150 (Drug Delivery, 2025).

For data set [1] the following is noted: ref Dhillon [2018].
On the set-up of data set [2]: method as in Wharton et al. [2023]; Lingvay et al. [2024]. Conditions: ref Wharton et al. [2023]; Lingvay et al. [2024].

Take `CC[C@H](C)[C@H](NC(=O)[C@H](Cc1ccccc1)NC(=O)[C@H](CCC(=O)O)NC(=O)[C@H](CCCCNC(=O)COCCOCCNC(=O)COCCOCCNC(=O)CC[C@H](NC(=O)CCCCCCCCCCCCCCCCC(=O)O)C(=O)O)NC(=O)[C@H](C)NC(=O)[C@H](C)NC(=O)[C@H](CCC(N)=O)NC(=O)CNC(=O)[C@H](CCC(=O)O)NC(=O)[C@H](CC(C)C)NC(=O)[C@H](Cc1ccc(O)cc1)NC(=O)[C@H](CO)NC(=O)[C@H](CO)NC(=O)[C@@H](NC(=O)[C@H](CC(=O)O)NC(=O)[C@H](CO)NC(=O)[C@@H](NC(=O)[C@H](Cc1ccccc1)NC(=O)[C@@H](NC(=O)CNC(=O)[C@H](CCC(=O)O)NC(=O)C(C)(C)NC(=O)[C@@H](N)Cc1cnc[nH]1)[C@@H](C)O)[C@@H](C)O)C(C)C)C(=O)N[C@@H](C)C(=O)N[C@@H](Cc1c[nH]c2ccccc12)C(=O)N[C@@H](CC(C)C)C(=O)N[C@H](C(=O)N[C@@H](CCCNC(=N)N)C(=O)NCC(=O)N[C@@H](CCCNC(=N)N)C(=O)NCC(=O)O)C(C)C` [semaglutide]: the half-life in humans in data set [1] was 165 to 183 h. Regarding Glucagon-like peptide-1 [GLP-1], the average weight loss result in data set [2] is “up to 15%”.
